From PubChem BioAssay (NCI)
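48-hour exposure; five concentrations; linearly interpolated endpoints. Abbreviation: GI50, concentration required for 50% inhibition of growth. TGI: total growth inhibition.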

What was measured:
Assay in all cases: NCI anticancer screen, dose series, 48 h
[1] = tested on: NCI-H23 lung
[2] = tested on: MDA-MB-435
[3] = tested on: IGROV1 ovarian
[4] = tested on: RPMI-8226 leukemia
[5] = tested on: MOLT-4 leukemia
[6] = tested on: DU-145 prostate
[7] = tested on: UO-31 renal
[8] = tested on: OVCAR-8 ovarian
[9] = tested on: MCF7 breast
[10] = tested on: SF-539 CNS
[11] = tested on: COLO 205 colon
[12] = tested on: SN12C renal
[13] = tested on: M14 melanoma
[14] = tested on: MALME-3M melanoma
[15] = tested on: 786-0 renal
[16] = tested on: HCC-2998 colon
[17] = tested on: KM12 colon
[18] = tested on: EKVX NSCLC
[19] = tested on: SK-MEL-28 melanoma
[20] = tested on: UACC-257 melanoma
[21] = tested on: TK-10 renal
[22] = tested on: OVCAR-5 ovarian
[23] = tested on: MDA-MB-468 breast
[24] = tested on: LOX IMVI melanoma
[25] = tested on: OVCAR-3 ovarian
[26] = tested on: HS 578T breast
[27] = tested on: NCI-H226 lung
[28] = tested on: HCT-15 colon
[29] = tested on: OVCAR-4 ovarian
[30] = tested on: SK-OV-3 ovarian
[31] = tested on: HT29 colon
[32] = tested on: NCI-H460 lung
[33] = tested on: UACC-62 melanoma
[34] = tested on: SNB-75 CNS
[35] = tested on: SK-MEL-2 melanoma
[36] = tested on: SF-268 CNS
[37] = tested on: BT-549 breast
[38] = tested on: HOP-62 NSCLC
[39] = tested on: SW-620 colon
[40] = tested on: RXF 393 renal
[41] = tested on: CAKI-1 renal
[42] = tested on: SNB-19 CNS
[43] = tested on: U251 CNS
[44] = tested on: SR leukemia
[45] = tested on: T-47D breast
[46] = tested on: PC-3 prostate
[47] = tested on: ACHN renal
[48] = tested on: HL-60(TB) leukemia
[49] = tested on: K-562 leukemia
[50] = tested on: SF-295 CNS
[51] = tested on: HCT-116 colon
[52] = tested on: NCI-H522 lung
[53] = tested on: NCI/ADR-RES ovarian
[54] = tested on: A498 renal
[55] = tested on: HOP-92 NSCLC
[56] = tested on: A549 NSCLC
[57] = tested on: MDA-MB-231 breast
[58] = tested on: SK-MEL-5 melanoma
[59] = tested on: CCRF-CEM leukemia

SMILES: O=C(CNc1nc(-c2ccccc2)cs1)Nc1ccccc1
- GI50 [1]: 1.48 µM
- TGI [1]: 3.15 µM
- GI50 [2]: 2.05 µM
- TGI [2]: 5.32 µM
- GI50 [3]: 1.5 µM
- TGI [3]: 4.87 µM
- GI50 [4]: 2.29 µM
- TGI [4]: 80.9 µM
- GI50 [5]: 1.83 µM
- TGI [5]: 7.46 µM
- GI50 [6]: 3.74 µM
- TGI [6]: 13.4 µM
- GI50 [7]: 2.37 µM
- TGI [7]: 12.9 µM
- GI50 [8]: 2.96 µM
- TGI [8]: 14.9 µM
- GI50 [9]: 1.4 µM
- TGI [9]: 3.41 µM
- GI50 [10]: 1.77 µM
- TGI [10]: 3.22 µM
- GI50 [11]: 2.16 µM
- TGI [11]: 4.57 µM
- GI50 [12]: 1.54 µM
- TGI [12]: 3.44 µM
- GI50 [13]: 1.52 µM
- TGI [13]: 3.49 µM
- GI50 [14]: 1.54 µM
- TGI [14]: 3.23 µM
- GI50 [15]: 2.63 µM
- TGI [15]: 5.48 µM
- GI50 [16]: 1.77 µM
- TGI [16]: 3.88 µM
- GI50 [17]: 3.87 µM
- TGI [17]: 14.9 µM
- GI50 [18]: 1.58 µM
- TGI [18]: 3.14 µM
- GI50 [19]: 2.56 µM
- TGI [19]: 6.81 µM
- GI50 [20]: 2.05 µM
- TGI [20]: 8.33 µM
- GI50 [21]: 4.64 µM
- TGI [21]: 12.4 µM
- GI50 [22]: 2.95 µM
- TGI [22]: 7.03 µM
- GI50 [23]: 1.55 µM
- TGI [23]: 3.2 µM
- GI50 [24]: 1.21 µM
- TGI [24]: 2.7 µM
- GI50 [25]: 1.93 µM
- TGI [25]: 4.36 µM
- GI50 [26]: 3.04 µM
- TGI [26]: > 100 µM
- GI50 [27]: 1.94 µM
- TGI [27]: 7.99 µM
- GI50 [28]: 1.61 µM
- TGI [28]: 3.36 µM
- GI50 [29]: 4.88 µM
- TGI [29]: 18.1 µM
- GI50 [30]: 2.92 µM
- TGI [30]: 10.2 µM
- GI50 [31]: 2.06 µM
- TGI [31]: 4.08 µM
- GI50 [32]: 2.94 µM
- TGI [32]: 11.8 µM
- GI50 [33]: 1.14 µM
- TGI [33]: 2.58 µM
- GI50 [34]: 1.05 µM
- TGI [34]: 6.68 µM
- GI50 [35]: 1.73 µM
- TGI [35]: 4.29 µM
- GI50 [36]: 3.33 µM
- TGI [36]: 22.9 µM
- GI50 [37]: 2.25 µM
- TGI [37]: 4.23 µM
- GI50 [38]: 2.17 µM
- TGI [38]: 6.31 µM
- GI50 [39]: 2.46 µM
- TGI [39]: 6.04 µM
- GI50 [40]: 1.85 µM
- TGI [40]: 3.86 µM
- GI50 [41]: 2.2 µM
- TGI [41]: 10.6 µM
- GI50 [42]: 1.82 µM
- TGI [42]: 4.16 µM
- GI50 [43]: 1.56 µM
- TGI [43]: 3.34 µM
- GI50 [44]: 1.42 µM
- TGI [44]: > 100 µM
- GI50 [45]: 2.57 µM
- TGI [45]: 10.2 µM
- GI50 [46]: 2.96 µM
- TGI [46]: 30.3 µM
- GI50 [47]: 2.6 µM
- TGI [47]: 10.6 µM
- GI50 [48]: 1.83 µM
- TGI [48]: 6.67 µM
- GI50 [49]: 2.32 µM
- TGI [49]: > 100 µM
- GI50 [50]: 2.48 µM
- TGI [50]: 11.6 µM
- GI50 [51]: 1.81 µM
- TGI [51]: 5.75 µM
- GI50 [52]: 1.53 µM
- TGI [52]: 3.02 µM
- GI50 [53]: 2.29 µM
- TGI [53]: 6.16 µM
- GI50 [54]: 11.1 µM
- TGI [54]: 23.5 µM
- GI50 [55]: 3.47 µM
- TGI [55]: 16.5 µM
- GI50 [56]: 3.25 µM
- TGI [56]: 13.5 µM
- GI50 [57]: 1.93 µM
- TGI [57]: 7.28 µM
- GI50 [58]: 1.62 µM
- TGI [58]: 2.98 µM
- GI50 [59]: 1.88 µM
- TGI [59]: > 100 µM

SMILES: CCCCSc1nc(Nc2ccc(S(N)(=O)=O)cc2)c(C#N)c(-c2ccc(Cl)cc2)n1
- GI50 [1]: 3.43 µM
- TGI [1]: 12.4 µM
- GI50 [2]: 4.01 µM
- TGI [2]: > 100 µM
- GI50 [3]: 5.79 µM
- TGI [3]: 41.3 µM
- GI50 [4]: 5.17 µM
- TGI [4]: > 100 µM
- GI50 [5]: 3.15 µM
- TGI [5]: 20.1 µM
- GI50 [6]: 4.95 µM
- TGI [6]: 18 µM
- GI50 [7]: 2 µM
- TGI [7]: 6.33 µM
- GI50 [8]: 2.08 µM
- TGI [8]: 4.93 µM
- GI50 [9]: 4.59 µM
- TGI [9]: > 100 µM
- GI50 [10]: 1.62 µM
- TGI [10]: 3.23 µM
- GI50 [11]: 13.4 µM
- TGI [11]: 42.9 µM
- GI50 [12]: 2.08 µM
- TGI [12]: 8.71 µM
- GI50 [13]: 2.36 µM
- TGI [13]: 6.09 µM
- GI50 [14]: 3.03 µM
- TGI [14]: 11 µM
- GI50 [15]: 1.98 µM
- TGI [15]: 5.11 µM
- GI50 [16]: 6.56 µM
- TGI [16]: 78.3 µM
- GI50 [17]: 6.26 µM
- TGI [17]: 30.2 µM
- GI50 [18]: 3.51 µM
- TGI [18]: 19.7 µM
- GI50 [19]: 5.98 µM
- TGI [19]: 31.1 µM
- GI50 [20]: 14.9 µM
- TGI [20]: > 100 µM
- GI50 [21]: 2.32 µM
- TGI [21]: 6.86 µM
- GI50 [22]: 4.77 µM
- TGI [22]: 22.9 µM
- GI50 [23]: 14.5 µM
- TGI [23]: 36.1 µM
- GI50 [24]: 1.72 µM
- TGI [24]: 3.33 µM
- GI50 [25]: 2.23 µM
- TGI [25]: 4.91 µM
- GI50 [26]: 2.46 µM
- TGI [26]: 8.71 µM
- GI50 [27]: 2.29 µM
- TGI [27]: 6 µM
- GI50 [29]: 1.83 µM
- TGI [29]: 3.89 µM
- GI50 [30]: 3.63 µM
- TGI [30]: 14.1 µM
- GI50 [31]: 2.73 µM
- TGI [31]: 9.84 µM
- GI50 [32]: 2.08 µM
- TGI [32]: 4.66 µM
- GI50 [33]: 2.8 µM
- TGI [33]: 8.98 µM
- GI50 [34]: 1.1 µM
- TGI [34]: 3.22 µM
- GI50 [35]: 27.6 µM
- TGI [35]: > 100 µM
- GI50 [36]: 5.64 µM
- TGI [36]: 42.1 µM
- GI50 [37]: 17.9 µM
- TGI [37]: 62 µM
- GI50 [38]: 2.18 µM
- TGI [38]: 4.97 µM
- GI50 [39]: 3.3 µM
- TGI [39]: 12.4 µM
- GI50 [40]: 1.81 µM
- TGI [40]: 5.12 µM
- GI50 [41]: 1.94 µM
- TGI [41]: 4.8 µM
- GI50 [42]: 3.65 µM
- TGI [42]: 15.7 µM
- GI50 [43]: 1.58 µM
- TGI [43]: 3.28 µM
- GI50 [45]: 19.9 µM
- TGI [45]: > 100 µM
- GI50 [46]: 5.39 µM
- TGI [46]: 26 µM
- GI50 [47]: 1.88 µM
- TGI [47]: 3.67 µM
- GI50 [48]: 50.6 µM
- TGI [48]: > 100 µM
- GI50 [50]: 1.82 µM
- TGI [50]: 3.78 µM
- GI50 [51]: 2 µM
- TGI [51]: 4.35 µM
- GI50 [52]: 10.6 µM
- TGI [52]: 70.5 µM
- GI50 [53]: 2.98 µM
- TGI [53]: 9.58 µM
- GI50 [54]: 6.41 µM
- TGI [54]: 27.8 µM
- GI50 [55]: 1.01 µM
- TGI [55]: 4.71 µM
- GI50 [56]: 2.61 µM
- TGI [56]: 9.81 µM
- GI50 [57]: 2.14 µM
- TGI [57]: 5.3 µM
- GI50 [58]: 8.46 µM
- TGI [58]: 33.5 µM
- GI50 [59]: 7.69 µM
- TGI [59]: > 100 µM
